From patent publication US20250230193A1, “CYCLIC COMPOUND HAVING SELECTIVE KRAS INHIBITORY EFFECT ON HRAS AND NRAS” (CHUGAI SEIYAKU KABUSHIKI KAISHA, priority 2022, published 2025)

Columns and labels:
[1] = target: GDP-bound NRAS wild-type protein (Homo sapiens, UniProt P01111); assay: Binding to NRAS by surface plasmon resonance (SPR), Single Cycle Kinetics; details: SPR, GDP-bound NRAS wild-type vs GDP-bound KRAS wild-type
[2] = target: GDP-bound HRAS wild-type protein (Homo sapiens, UniProt P01112); assay: Binding to HRAS by surface plasmon resonance (SPR), Single Cycle Kinetics; details: SPR, GDP-bound HRAS wild-type vs GDP-bound KRAS wild-type
GDP-bound HRAS wild-type protein, sequence (P01112 whole entry): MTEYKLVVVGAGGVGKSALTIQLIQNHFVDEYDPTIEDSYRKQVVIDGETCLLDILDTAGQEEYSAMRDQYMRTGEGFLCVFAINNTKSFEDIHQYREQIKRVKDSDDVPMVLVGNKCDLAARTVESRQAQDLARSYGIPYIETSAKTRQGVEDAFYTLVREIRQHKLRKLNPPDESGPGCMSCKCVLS

GDP-bound NRAS wild-type protein, sequence (P01111 whole entry): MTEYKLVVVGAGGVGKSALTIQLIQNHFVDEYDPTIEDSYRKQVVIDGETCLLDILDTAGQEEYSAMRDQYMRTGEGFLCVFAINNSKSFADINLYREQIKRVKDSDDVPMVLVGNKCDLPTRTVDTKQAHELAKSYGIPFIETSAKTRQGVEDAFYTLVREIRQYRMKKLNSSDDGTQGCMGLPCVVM

SMILES	NRAS/KRAS (ratio of KD value with respect to NRAS to KD value with respect to KRAS) [1]	HRAS/KRAS (ratio of KD value with respect to HRAS to KD value with respect to KRAS) [2]
CCC(CC)[C@H]1C(=O)N(C)[C@H](C(=O)N(C)C)CC(=O)N(C)[C@@H](COC)C(=O)N[C@@H]([C@@H](C)CC)C(=O)N(C)CC(=O)N(C)[C@H]2C/C=C\CCN(C2=O)[C@@H](CC2CCCCC2)C(=O)N(C)CC(=O)N[C@@H](CCc2ccc(C(F)(F)F)c(OC)c2)C(=O)N2C[C@@H](C)C[C@H]2C(=O)NC2(CC(C)(C)C2)C(=O)N1C [PP2466]	A (a compound having 10 or more and less than 20 is denoted as A)	A (a compound having 10 or more and less than 20 is denoted as A)
CCCOC[C@H]1C(=O)N[C@@H]([C@@H](C)CC)C(=O)N(C)CC(=O)N(C)[C@H]2C/C=C\CCN(C2=O)[C@@H](Cc2ccc(C)cc2)C(=O)N(C)CC(=O)N[C@@H](CCc2ccc(C(F)(F)F)c(Cl)c2)C(=O)N2C[C@@H](C)C[C@H]2C(=O)NC2(CC(C)(C)C2)C(=O)N(C)[C@@H](C2CCCC2)C(=O)N(C)[C@H](C(=O)N(C)CC)CC(=O)N1C [PP2467]	A (a compound having 10 or more and less than 20 is denoted as A)	B (a compound having 3 or more and less than 10 is denoted as B)
CCO[C@@H]1C[C@H]2C(=O)NC3(CC(C)(C)C3)C(=O)N(C)[C@@H](C(CC)CC)C(=O)N(C)[C@H](C(=O)N(C)C)CC(=O)N(C)[C@@H](COC)C(=O)N[C@@H]([C@@H](C)CC)C(=O)N(C)CC(=O)N(C)[C@H]3C/C=C\CCN(C3=O)[C@@H](CC3CCCCC3)C(=O)N(C)CC(=O)N[C@@H](CCc3ccc(C(F)(F)F)c(Cl)c3)C(=O)N2C1 [PP2468]	AA (a compound having 20 or more is denoted as AA)	A (a compound having 10 or more and less than 20 is denoted as A)
CCCOC[C@H]1C(=O)N[C@@H]([C@@H](C)CC)C(=O)N(C)CC(=O)N(C)[C@H]2C/C=C\CCN(C2=O)[C@@H](Cc2ccc(C)cc2)C(=O)N(C)CC(=O)N[C@@H](CCc2ccc(C(F)(F)F)c(Cl)c2)C(=O)N2C[C@H](OCC)C[C@H]2C(=O)NC2(CC(C)(C)C2)C(=O)N(C)[C@@H](C2CCCC2)C(=O)N(C)[C@H](C(=O)N(C)CC)CC(=O)N1C [PP2469]	A (a compound having 10 or more and less than 20 is denoted as A)	B (a compound having 3 or more and less than 10 is denoted as B)
CCOC[C@H]1C(=O)N[C@@H]([C@@H](C)CC)C(=O)N(C)CC(=O)N(C)[C@H]2C/C=C\CCN(C2=O)[C@@H](CC2CCCCC2)C(=O)N(C)CC(=O)N[C@@H](CCc2ccc(C(F)(F)F)c(OC)c2)C(=O)N2C[C@H](OCC)C[C@H]2C(=O)NC2(CC(C)(C)C2)C(=O)N(C)[C@@H](C(CC)CC)C(=O)N(C)[C@H](C(=O)N(C)C)CC(=O)N1C [PP2470]	A (a compound having 10 or more and less than 20 is denoted as A)	A (a compound having 10 or more and less than 20 is denoted as A)
CCCOC[C@H]1C(=O)N[C@@H]([C@@H](C)CC)C(=O)N(C)CC(=O)N(C)[C@H]2C/C=C\CCN(C2=O)[C@@H](Cc2ccc(C)cc2)C(=O)N(C)CC(=O)N[C@@H](CCc2cc(F)c(C(F)(F)F)c(F)c2)C(=O)N2C[C@@H](C)C[C@H]2C(=O)NC2(CC(C)(C)C2)C(=O)N(C)[C@@H](C2CCCC2)C(=O)N(C)[C@H](C(=O)N(C)CC)CC(=O)N1C [PP2471]	A (a compound having 10 or more and less than 20 is denoted as A)	A (a compound having 10 or more and less than 20 is denoted as A)
CCCOC[C@H]1C(=O)N[C@@H]([C@@H](C)CC)C(=O)N(C)CC(=O)N(C)[C@H]2C/C=C\CCN(C2=O)[C@@H](CC2CCC(F)(F)CC2)C(=O)N(C)CC(=O)N[C@@H](CCc2cc(F)c(C(F)(F)F)c(F)c2)C(=O)N2C[C@H](OCC)C[C@H]2C(=O)NC2(CC(C)(C)C2)C(=O)N(C)[C@@H](C(CC)CC)C(=O)N(C)[C@H](C(=O)N(C)C)CC(=O)N1C [PP2472]	A (a compound having 10 or more and less than 20 is denoted as A)	A (a compound having 10 or more and less than 20 is denoted as A)
CCOC[C@H]1C(=O)N[C@@H]([C@@H](C)CC)C(=O)N(C)CC(=O)N(C)[C@H]2C/C=C\CCN(C2=O)[C@@H](CC2CCC(F)(F)CC2)C(=O)N(C)CC(=O)N[C@@H](CCc2ccc(C(F)(F)F)c(Cl)c2)C(=O)N2C[C@@H](C)C[C@H]2C(=O)NC2(CC(C)(C)C2)C(=O)N(C)[C@@H](C(CC)CC)C(=O)N(C)[C@H](C(=O)N(C)C)CC(=O)N1C [PP2475]	AA (a compound having 20 or more is denoted as AA)	A (a compound having 10 or more and less than 20 is denoted as A)
CCO[C@@H]1C[C@H]2C(=O)NC3(CC(C)(C)C3)C(=O)N(C)[C@@H](C(CC)CC)C(=O)N(C)[C@H](C(=O)N(C)C)CC(=O)N(C)[C@@H](C(C)C)C(=O)N[C@@H]([C@@H](C)CC)C(=O)N(C)CC(=O)N(C)[C@H]3C/C=C\CCN(C3=O)[C@@H](CC3CCC(F)(F)CC3)C(=O)N(C)CC(=O)N[C@@H](CCc3ccc(C(F)(F)F)c(OC)c3)C(=O)N2C1 [PP2477]	A (a compound having 10 or more and less than 20 is denoted as A)	A (a compound having 10 or more and less than 20 is denoted as A)
CCOC[C@H]1C(=O)N[C@@H]([C@@H](C)CC)C(=O)N(C)CC(=O)N(C)[C@H]2C/C=C\CCN(C2=O)[C@@H](CC2CCCCC2)C(=O)N(C)CC(=O)N[C@@H](CCc2cc(F)c(C(F)(F)F)c(F)c2)C(=O)N2C[C@H](OCC)C[C@H]2C(=O)NC2(CC(C)(C)C2)C(=O)N(C)[C@@H](C(CC)CC)C(=O)N(C)[C@H](C(=O)N(C)C)CC(=O)N1C [PP2479]	AA (a compound having 20 or more is denoted as AA)	A (a compound having 10 or more and less than 20 is denoted as A)
CCO[C@@H]1C[C@H]2C(=O)NC3(CC(C)(C)C3)C(=O)N(C)[C@@H](C(CC)CC)C(=O)N(C)[C@H](C(=O)N(C)C)CC(=O)N(C)[C@@H](CC3CC3)C(=O)N[C@@H]([C@@H](C)CC)C(=O)N(C)CC(=O)N(C)[C@H]3C/C=C\CCN(C3=O)[C@@H](CC3CCC(F)(F)CC3)C(=O)N(C)CC(=O)N[C@@H](CCc3ccc(C(F)(F)F)c(OC)c3)C(=O)N2C1 [PP2480]	A (a compound having 10 or more and less than 20 is denoted as A)	A (a compound having 10 or more and less than 20 is denoted as A)
CCO[C@@H]1C[C@H]2C(=O)NC3(CC(C)(C)C3)C(=O)N(C)[C@@H](C(CC)CC)C(=O)N(C)[C@H](C(=O)N(C)C)CC(=O)N(C)[C@@H](C(C)C)C(=O)N[C@@H]([C@@H](C)CC)C(=O)N(C)CC(=O)N(C)[C@H]3C/C=C\CCN(C3=O)[C@@H](CC3CCC(F)(F)CC3)C(=O)N(C)CC(=O)N[C@@H](CCc3cc(F)c(C(F)(F)F)c(F)c3)C(=O)N2C1 [PP2481]	A (a compound having 10 or more and less than 20 is denoted as A)	A (a compound having 10 or more and less than 20 is denoted as A)
CCC[C@H]1C(=O)N[C@@H]([C@@H](C)CC)C(=O)N(C)CC(=O)N(C)[C@H]2C/C=C\CCN(C2=O)[C@@H](CC2CCC(F)(F)CC2)C(=O)N(C)CC(=O)N[C@@H](CCc2ccc(C(F)(F)F)c(OC)c2)C(=O)N2C[C@H](OCC)C[C@H]2C(=O)NC2(CC(C)(C)C2)C(=O)N(C)[C@@H](C(CC)CC)C(=O)N(C)[C@H](C(=O)N(C)C)CC(=O)N1C [PP2482]	A (a compound having 10 or more and less than 20 is denoted as A)	A (a compound having 10 or more and less than 20 is denoted as A)
CCCOC[C@H]1C(=O)N[C@@H]([C@@H](C)CC)C(=O)N(C)CC(=O)N(C)[C@H]2C/C=C\CCN(C2=O)[C@@H](CC2CCC(F)(F)CC2)C(=O)N(C)CC(=O)N[C@@H](CCc2ccc(C(F)(F)F)c(OC)c2)C(=O)N2C[C@@H](C)C[C@H]2C(=O)NC2(CC(C)(C)C2)C(=O)N(C)[C@@H](C(CC)CC)C(=O)N(C)[C@H](C(=O)N(C)C)CC(=O)N1C [PP2483]	A (a compound having 10 or more and less than 20 is denoted as A)	A (a compound having 10 or more and less than 20 is denoted as A)
CCCOC[C@H]1C(=O)N[C@@H]([C@@H](C)CC)C(=O)N(C)CC(=O)N(C)[C@H]2C/C=C\CCN(C2=O)[C@@H](CC2CCC(F)(F)CC2)C(=O)N(C)CC(=O)N[C@@H](CCc2ccc(C(F)(F)F)c(Cl)c2)C(=O)N2C[C@H](OCC)C[C@H]2C(=O)NC2(CC(C)(C)C2)C(=O)N(C)[C@@H](C(CC)CC)C(=O)N(C)[C@H](C(=O)N(C)C)CC(=O)N1C [PP2484]	A (a compound having 10 or more and less than 20 is denoted as A)	A (a compound having 10 or more and less than 20 is denoted as A)
CCO[C@@H]1C[C@H]2C(=O)NC3(CC(C)(C)C3)C(=O)N(C)[C@@H](C(CC)CC)C(=O)N(C)[C@H](C(=O)N(C)C)CC(=O)N(C)[C@@H](CC3CC3)C(=O)N[C@@H]([C@@H](C)CC)C(=O)N(C)CC(=O)N(C)[C@H]3C/C=C\CCN(C3=O)[C@@H](CC3CCC(F)(F)CC3)C(=O)N(C)CC(=O)N[C@@H](CCc3cc(F)c(C(F)(F)F)c(F)c3)C(=O)N2C1 [PP2485]	A (a compound having 10 or more and less than 20 is denoted as A)	A (a compound having 10 or more and less than 20 is denoted as A)
